Assays:
Test in all cases: relative viability (nuclei count vs DMSO), 5 days (fraction); higher = more cells survive
NCI-H1944 = tested on: NCI-H1944
In short: (§1)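 Nuclei were stained with Hoechst during a one-step fixation (final 0.05% Triton X-100, 1% formaldehyde, 1 ug/ml Hoechst) carried out 5 days after dosing, then counted on 4× images. The cells, lung cancer lines in 1536-well plates, had been dosed by pin tool the day after seeding with one drug alone or a fixed anchor-drug dose plus five library-drug doses (not always all listed) in √10 steps. Relative viability is the nuclei count in treated wells divided by that in vehicle wells, and each value is the median of duplicate plates.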

NCI-H2347 = tested on: NCI-H2347
In short: as §1

LK-2 = tested on: LK-2
In short: as §1

NCI-H1651 = tested on: NCI-H1651
In short: as §1

NCI-H838 = tested on: NCI-H838
In short: as §1

RERF-LC-KJ = tested on: RERF-LC-KJ
In short: as §1

201T = tested on: 201T
In short: as §1

NCI-H727 = tested on: NCI-H727
In short: as §1

A-427 = tested on: A-427
In short: as §1

NCI-H23 = tested on: NCI-H23
In short: as §1

Q: What does the source list for `COc1cc(N2CCC(C(N)=O)CC2)ccc1Nc1nc(N)c(Cl)c(Nc2ccccc2S(=O)(=O)C(C)C)n1` [HG-5-88-01] + CC1(C)CCC(c2ccc(Cl)cc2)=C(CN2CCN(c3ccc(C(=O)NS(=O)(=O)c4ccc(N[C@H](CCN5CCOCC5)CSc5ccccc5)c(S(=O)(=O)C(F)(F)F)c4)cc3)CC2)C1 [Navitoclax] (partner 0.5 µM)?
A: relative viability (NCI-H1944; first compound 0.1265 µM): 1.15; relative viability (NCI-H1944; first compound 0.4 µM): 1.11; relative viability (NCI-H1944; first compound 1.265 µM): 0.985; relative viability (NCI-H1944; first compound 4 µM): 1.04; relative viability (NCI-H2347; first compound 0.04 µM): 0.786; relative viability (NCI-H2347; first compound 0.1265 µM): 0.863; relative viability (NCI-H2347; first compound 0.4 µM): 0.893; relative viability (NCI-H2347; first compound 1.265 µM): 0.696; relative viability (NCI-H2347; first compound 4 µM): 0.685; relative viability (LK-2; first compound 0.04 µM): 0.872; relative viability (LK-2; first compound 0.1265 µM): 1.03; relative viability (LK-2; first compound 0.4 µM): 0.805; relative viability (LK-2; first compound 1.265 µM): 0.377; relative viability (LK-2; first compound 4 µM): 0.541; relative viability (NCI-H1651; first compound 0.04 µM): 1.27; relative viability (NCI-H1651; first compound 0.1265 µM): 1.04; relative viability (NCI-H1651; first compound 0.4 µM): 1.08; relative viability (NCI-H1651; first compound 1.265 µM): 1.05; relative viability (NCI-H1651; first compound 4 µM): 1.04; relative viability (NCI-H838; first compound 0.04 µM): 1.09; relative viability (NCI-H838; first compound 0.1265 µM): 1.2; relative viability (NCI-H838; first compound 0.4 µM): 1.07; relative viability (NCI-H838; first compound 1.265 µM): 0.973; relative viability (NCI-H838; first compound 4 µM): 0.904; relative viability (RERF-LC-KJ; first compound 0.04 µM): 1.05; relative viability (RERF-LC-KJ; first compound 0.1265 µM): 0.846; relative viability (RERF-LC-KJ; first compound 0.4 µM): 0.954; relative viability (RERF-LC-KJ; first compound 1.265 µM): 0.941; relative viability (RERF-LC-KJ; first compound 4 µM): 0.5; relative viability (201T; first compound 0.04 µM): 1.22; relative viability (201T; first compound 0.1265 µM): 1.22; relative viability (201T; first compound 0.4 µM): 1.28; relative viability (201T; first compound 1.265 µM): 1.18; relative viability (201T; first compound 4 µM): 1.17; relative viability (NCI-H727; first compound 0.04 µM): 0.532; relative viability (NCI-H727; first compound 0.1265 µM): 0.416; relative viability (NCI-H727; first compound 0.4 µM): 0.469; relative viability (NCI-H727; first compound 1.265 µM): 0.224; relative viability (NCI-H727; first compound 4 µM): 0.0929; relative viability (A-427; first compound 0.04 µM): 0.97; relative viability (A-427; first compound 0.1265 µM): 1.04; relative viability (A-427; first compound 0.4 µM): 0.956; relative viability (A-427; first compound 1.265 µM): 1.04; relative viability (A-427; first compound 4 µM): 0.835; relative viability (NCI-H23; first compound 0.04 µM): 0.945; relative viability (NCI-H23; first compound 0.1265 µM): 0.932; relative viability (NCI-H23; first compound 0.4 µM): 0.809; relative viability (NCI-H23; first compound 1.265 µM): 0.815; relative viability (NCI-H23; first compound 4 µM): 0.659

Source: the supplement of paper PMC10307832
